# Results from US10577317B2, “Crystal forms and production methods thereof” (Sunovion Pharmaceuticals Inc., priority 2017, dated 2020).
# Like-named read-outs stand apart in the source and are kept apart here.
# Experiments:
# Assay type in all cases: physicochemical
# [1] = Solubility (mg/mL) in water, buffers, simulated fluids and organic solvents (Table 1)
# [2] = DVS water sorption isotherm, 25° C. scanned over 0 to 95% relative humidity (hygroscopicity)
# Excerpt: In various embodiments, the hygroscopicity of crystal forms of racemic amisulpride, enantiomeric amisulpride, and enantiomeric amisulpride solvates are characterized by dynamic vapor sorption (DVS). DVS is a gravimetric technique that measures how much of a solvent is absorbed by a sample by varying the vapor concentration surrounding the sample (e.g., relative humidity) and measuring the change in mass. In the present application, DVS is used to generate water sorption isotherms, which represent the equilibrium amount of vapor sorbed as a function of steady state relative vapor pressure at a constant temperature.
# [3] = Solid form stability on storage at 25° C. and 60% relative humidity; conditions: after 4 months at 25° C. and 60% relative humidity (RH)
# [4] = DVS, 25° C., 0 to 95% relative humidity
compound,measurement,setting,value
"CCN1CCC[C@@H]1CNC(=O)c1cc(S(=O)(=O)CC)c(N)cc1OC [(R)-amisulpride Form A, R-4-Amino-N-[(1-ethyl-2-pyrrolidinyl)methyl]-5-(ethylsulfonyl)-2-methoxybenzamide]",solubility,"[1]; aqueous buffer, 0.05M Acetate Buffer, solution pH 4.5, read-out: Solubility (mg/mL): 0.05M Acetate Buffer",> 100 mg/mL
same,solubility,"[1]; pH 1.1, Simulated Gastric Fluid (no enzyme), pH adjusted to 1.1 (Form A), 1.2 (Form A′), read-out: Solubility (mg/mL): Simulated Gastric Fluid (no enzyme)",> 100 mg/mL
same,solubility,"[1]; pH 6.7, fassgf or other biorelevant, Simulated Intestinal Fluid (no enzyme), pH adjusted to 6.7 (Form A), 6.9 (Form A′), read-out: Solubility (mg/mL): Simulated Intestinal Fluid (no enzyme)",> 100 mg/mL
same,hygroscopicity,[2]; [4],"substantially non-hygroscopic (less than a 1% maximum mass change in water sorption isotherms, at 25 °C scanned over 0 to 95% relative humidity)"
same,maximum mass change in water sorption isotherms,[2]; [4],0.183%
same,average maximum mass change,"[2]; DVS, average over the samples of Tables 6A-6C (Form A′) or 6D-6E (Form A)",about 0.17%
same,Change Mass,"[2]; FIG. 2D, RH 1.28 %, elapse time 173.0 min",0.000 wt %
same,Change Mass,"[2]; FIG. 2D, RH 5.03 %, elapse time 515.4 min",0.004 wt %
same,Change Mass,"[2]; FIG. 2D, RH 5.05 %, elapse time 854.6 min",0.008 wt %
same,Change Mass,"[2]; FIG. 2D, RH 5.19 %, elapse time 181.6 min",0.004 wt %
same,Change Mass,"[2]; FIG. 2D, RH 9.87 %, elapse time 523.4 min",0.008 wt %
same,Change Mass,"[2]; FIG. 2D, RH 10.07 %, elapse time 189.1 min",0.010 wt %
same,Change Mass,"[2]; FIG. 2D, RH 10.08 %, elapse time 507.4 min",0.010 wt %
same,Change Mass,"[2]; FIG. 2D, RH 10.10 %, elapse time 846.6 min",0.014 wt %
same,Change Mass,"[2]; FIG. 2D, RH 14.89 %, elapse time 531.4 min",0.014 wt %
same,Change Mass,"[2]; FIG. 2D, RH 14.91 %, elapse time 196.6 min",0.017 wt %
same,Change Mass,"[2]; FIG. 2D, RH 15.10 %, elapse time 499.4 min",0.017 wt %
same,Change Mass,"[2]; FIG. 2D, RH 15.15 %, elapse time 838.6 min",0.021 wt %
same,Change Mass,"[2]; FIG. 2D, RH 19.83 %, elapse time 204.6 min",0.024 wt %
same,Change Mass,"[2]; FIG. 2D, RH 19.90 %, elapse time 539.4 min",0.020 wt %
same,Change Mass,"[2]; FIG. 2D, RH 20.10 %, elapse time 491.4 min",0.023 wt %
same,Change Mass,"[2]; FIG. 2D, RH 20.13 %, elapse time 830.5 min",0.028 wt %
same,Change Mass,"[2]; FIG. 2D, RH 24.87 %, elapse time 548.4 min",0.027 wt %
same,Change Mass,"[2]; FIG. 2D, RH 24.89 %, elapse time 483.4 min",0.029 wt %
same,Change Mass,"[2]; FIG. 2D, RH 24.93 %, elapse time 822.5 min",0.033 wt %
same,Change Mass,"[2]; FIG. 2D, RH 24.98 %, elapse time 213.7 min",0.031 wt %
same,Change Mass,"[2]; FIG. 2D, RH 29.88 %, elapse time 222.7 min",0.039 wt %
same,Change Mass,"[2]; FIG. 2D, RH 29.89 %, elapse time 557.4 min",0.034 wt %
same,Change Mass,"[2]; FIG. 2D, RH 30.13 %, elapse time 475.9 min",0.036 wt %
same,Change Mass,"[2]; FIG. 2D, RH 30.15 %, elapse time 815.0 min",0.040 wt %
same,Change Mass,"[2]; FIG. 2D, RH 34.83 %, elapse time 566.4 min",0.042 wt %
same,Change Mass,"[2]; FIG. 2D, RH 34.93 %, elapse time 467.4 min",0.043 wt %
same,Change Mass,"[2]; FIG. 2D, RH 34.94 %, elapse time 806.5 min",0.046 wt %
same,Change Mass,"[2]; FIG. 2D, RH 34.97 %, elapse time 231.7 min",0.046 wt %
same,Change Mass,"[2]; FIG. 2D, RH 39.80 %, elapse time 240.7 min",0.054 wt %
same,Change Mass,"[2]; FIG. 2D, RH 39.88 %, elapse time 457.4 min",0.050 wt %
same,Change Mass,"[2]; FIG. 2D, RH 39.95 %, elapse time 796.5 min",0.053 wt %
same,Change Mass,"[2]; FIG. 2D, RH 39.99 %, elapse time 577.4 min",0.049 wt %
same,Change Mass,"[2]; FIG. 2D, RH 44.82 %, elapse time 249.7 min",0.061 wt %
same,Change Mass,"[2]; FIG. 2D, RH 44.93 %, elapse time 586.4 min",0.056 wt %
same,Change Mass,"[2]; FIG. 2D, RH 45.05 %, elapse time 786.5 min",0.060 wt %
same,Change Mass,"[2]; FIG. 2D, RH 45.17 %, elapse time 447.9 min",0.058 wt %
same,Change Mass,"[2]; FIG. 2D, RH 49.96 %, elapse time 597.5 min",0.063 wt %
same,Change Mass,"[2]; FIG. 2D, RH 49.98 %, elapse time 258.7 min",0.068 wt %
same,Change Mass,"[2]; FIG. 2D, RH 50.04 %, elapse time 775.5 min",0.067 wt %
same,Change Mass,"[2]; FIG. 2D, RH 50.07 %, elapse time 438.8 min",0.065 wt %
same,Change Mass,"[2]; FIG. 2D, RH 54.98 %, elapse time 606.5 min",0.070 wt %
same,Change Mass,"[2]; FIG. 2D, RH 55.01 %, elapse time 269.7 min",0.076 wt %
same,Change Mass,"[2]; FIG. 2D, RH 55.07 %, elapse time 427.8 min",0.073 wt %
same,Change Mass,"[2]; FIG. 2D, RH 55.14 %, elapse time 764.5 min",0.074 wt %
same,Change Mass,"[2]; FIG. 2D, RH 59.95 %, elapse time 278.7 min",0.084 wt %
same,Change Mass,"[2]; FIG. 2D, RH 59.95 %, elapse time 617.5 min",0.078 wt %
same,Change Mass,"[2]; FIG. 2D, RH 60.08 %, elapse time 416.8 min",0.081 wt %
same,Change Mass,"[2]; FIG. 2D, RH 60.16 %, elapse time 753.5 min",0.082 wt %
same,Change Mass,"[2]; FIG. 2D, RH 64.91 %, elapse time 628.5 min",0.086 wt %
same,Change Mass,"[2]; FIG. 2D, RH 64.92 %, elapse time 289.7 min",0.091 wt %
same,Change Mass,"[2]; FIG. 2D, RH 65.11 %, elapse time 742.5 min",0.090 wt %
same,Change Mass,"[2]; FIG. 2D, RH 65.16 %, elapse time 405.8 min",0.090 wt %
same,Change Mass,"[2]; FIG. 2D, RH 69.88 %, elapse time 300.7 min",0.099 wt %
same,Change Mass,"[2]; FIG. 2D, RH 69.98 %, elapse time 639.5 min",0.094 wt %
same,Change Mass,"[2]; FIG. 2D, RH 70.09 %, elapse time 394.8 min",0.099 wt %
same,Change Mass,"[2]; FIG. 2D, RH 70.18 %, elapse time 731.5 min",0.098 wt %
same,Change Mass,"[2]; FIG. 2D, RH 74.63 %, elapse time 648.5 min",0.103 wt %
same,Change Mass,"[2]; FIG. 2D, RH 74.64 %, elapse time 309.7 min",0.108 wt %
same,Change Mass,"[2]; FIG. 2D, RH 75.39 %, elapse time 383.8 min",0.109 wt %
same,Change Mass,"[2]; FIG. 2D, RH 75.48 %, elapse time 720.5 min",0.109 wt %
same,Change Mass,"[2]; FIG. 2D, RH 79.56 %, elapse time 318.7 min",0.119 wt %
same,Change Mass,"[2]; FIG. 2D, RH 79.66 %, elapse time 657.5 min",0.113 wt %
same,Change Mass,"[2]; FIG. 2D, RH 80.45 %, elapse time 374.8 min",0.124 wt %
same,Change Mass,"[2]; FIG. 2D, RH 80.45 %, elapse time 711.5 min",0.123 wt %
same,Change Mass,"[2]; FIG. 2D, RH 84.45 %, elapse time 666.5 min",0.128 wt %
same,Change Mass,"[2]; FIG. 2D, RH 84.52 %, elapse time 327.8 min",0.134 wt %
same,Change Mass,"[2]; FIG. 2D, RH 85.43 %, elapse time 702.5 min",0.152 wt %
same,Change Mass,"[2]; FIG. 2D, RH 85.47 %, elapse time 365.8 min",0.155 wt %
same,Change Mass,"[2]; FIG. 2D, RH 89.51 %, elapse time 336.8 min",0.152 wt %
same,Change Mass,"[2]; FIG. 2D, RH 89.63 %, elapse time 675.5 min",0.147 wt %
same,Change Mass,"[2]; FIG. 2D, RH 90.09 %, elapse time 356.8 min",0.168 wt %
same,Change Mass,"[2]; FIG. 2D, RH 90.20 %, elapse time 693.5 min",0.164 wt %
same,Change Mass,"[2]; FIG. 2D, RH 94.80 %, elapse time 347.8 min",0.183 wt %
same,Change Mass,"[2]; FIG. 2D, RH 94.89 %, elapse time 684.5 min",0.175 wt %
same,Change Mass,"[2]; FIG. 2E, RH 19.69 %, elapse time 383.8 min",0.012 wt %
same,Change Mass,"[2]; FIG. 2E, RH 24.95 %, elapse time 392.9 min",0.018 wt %
same,Change Mass,"[2]; FIG. 2E, RH 29.81 %, elapse time 401.9 min",0.024 wt %
same,Change Mass,"[2]; FIG. 2E, RH 34.97 %, elapse time 412.9 min",0.032 wt %
same,Change Mass,"[2]; FIG. 2E, RH 39.81 %, elapse time 421.9 min",0.038 wt %
same,Change Mass,"[2]; FIG. 2E, RH 44.97 %, elapse time 432.9 min",0.044 wt %
same,Change Mass,"[2]; FIG. 2E, RH 45.03 %, elapse time 627.0 min",0.046 wt %
same,Change Mass,"[2]; FIG. 2E, RH 49.81 %, elapse time 441.9 min",0.051 wt %
same,Change Mass,"[2]; FIG. 2E, RH 50.10 %, elapse time 618.0 min",0.052 wt %
same,Change Mass,"[2]; FIG. 2E, RH 54.81 %, elapse time 450.9 min",0.059 wt %
same,Change Mass,"[2]; FIG. 2E, RH 55.04 %, elapse time 609.0 min",0.059 wt %
same,Change Mass,"[2]; FIG. 2E, RH 59.91 %, elapse time 461.9 min",0.066 wt %
same,Change Mass,"[2]; FIG. 2E, RH 60.10 %, elapse time 598.0 min",0.067 wt %
same,Change Mass,"[2]; FIG. 2E, RH 64.88 %, elapse time 472.9 min",0.074 wt %
same,Change Mass,"[2]; FIG. 2E, RH 65.19 %, elapse time 586.9 min",0.075 wt %
same,Change Mass,"[2]; FIG. 2E, RH 69.81 %, elapse time 483.9 min",0.082 wt %
same,Change Mass,"[2]; FIG. 2E, RH 70.16 %, elapse time 575.9 min",0.083 wt %
same,Change Mass,"[2]; FIG. 2E, RH 74.59 %, elapse time 492.9 min",0.090 wt %
same,Change Mass,"[2]; FIG. 2E, RH 75.44 %, elapse time 564.9 min",0.092 wt %
same,Change Mass,"[2]; FIG. 2E, RH 79.63 %, elapse time 501.9 min",0.100 wt %
same,Change Mass,"[2]; FIG. 2E, RH 80.52 %, elapse time 555.9 min",0.105 wt %
same,Change Mass,"[2]; FIG. 2E, RH 84.55 %, elapse time 510.9 min",0.112 wt %
same,Change Mass,"[2]; FIG. 2E, RH 85.39 %, elapse time 546.9 min",0.126 wt %
same,Change Mass,"[2]; FIG. 2E, RH 89.85 %, elapse time 519.9 min",0.127 wt %
same,Change Mass,"[2]; FIG. 2E, RH 90.10 %, elapse time 537.9 min",0.137 wt %
same,Change Mass,"[2]; FIG. 2E, RH 94.52 %, elapse time 528.9 min",0.149 wt %
same,thermodynamic stability of crystal form (conversion to other polymorphs or amorphous form),[3],not substantially converting to other polymorphs or amorphous form
